In US5763635A, “Tetrahydronaphthalene derivatives substituted in the 8 position with alkyhidene groups having retinoid and/or retinoid antagonist-like biological activity” (ALLERGAN, priority 1996, dated 1998):

Test system: ornithine decarboxylase (ODC)
Test: Inhibition of TPA induction of ornithine decarboxylase (ODC assay)
Type: biochemical
Source text: A classic measure of retinoic acid activity involves measuring the effects of retinoic acid on ornithine decarboxylase. The original work on the correlation between retinoic acid and decrease in cell proliferation was done by Verma & Boutwell, Cancer Research, 1977, 37,2196-2201. That reference discloses that ornithine decarboxylase (ODC) activity increased precedent to polyamine biosynthesis. It has been established elsewhere that increases in polyamine synthesis can be correlated or associated with cellular proliferation. Thus, if ODC activity could be inhibited, cell hyperproliferation could be modulated. Although all cases for ODC activity increases are unknown, it is known that 12-O-tetradecanoylphorbol-13-acetate (TPA) induces ODC activity. Retinoic acid inhibits this induction of ODC activity by TPA. […] Activity of exemplary compounds of the present invention in the above-described ODC assay is disclosed in Table 1 which provides the IC60 concentration for the respective exemplary compound. ("IC60 " is that concentration of the test compound which causes 60% inhibition in the ODC assay. By analogy, "IC80, for example, is that concentration of the test compound which causes 80% inhibition in the ODC assay.)

IC60 (concentration causing 60% inhibition in the ODC assay (TPA-induced))	IC80 (concentration causing 80% inhibition in the ODC assay (TPA-induced), marked (IC80) in the IC60 column)	SMILES
8.4 nmols		CCOC(=O)c1ccc(N=Nc2ccc3c(c2)/C(=N/OC)CCC3(C)C)cc1 [Compound D3, Ethyl 4-[(8(7H)-anti-(O-methyl oxime)-5,5-dimethyl-5,6-dihydronaphthalen-2-yl)azo]benzoate]
	4.3 nmols	CC1(C)CC=C(c2cccs2)c2ccc(C(=O)C=Cc3ccc(C(=O)O)cc3)cc21 [Compound D34, 4-[3-oxo-3-(7,8-dihydro-5-(2-thienyl)-8,8-dimethyl-2-naphthalenyl)-1-propenyl]-benzoic acid]
